Experimental data published in patent US7943619B2, “Isoxazolo-pyridazine derivatives” (priority 2007, dated 2011).

What follows are compounds tested against human GABA A receptor α5β3γ2 (α5 subunit) (Homo sapiens, UniProt P18507+P31644) (assay: biochemical). Conditions: not given.
Type: binding
Description: The affinity of compounds at GABA A receptor subtypes was measured by competition for [3H]flumazenil (85 Ci/mmol; Roche) binding to HEK293 cells expressing rat (stably transfected) or human (transiently transfected) receptors of composition α1β3γ2, α2β3γ2, α3β3γ2 and α5β3γ2.
Cell pellets were suspended in Krebs-tris buffer (4.8 mM KCl, 1.2 mM CaCl2, 1.2 mM MgCl2, 120 mM NaCl, 15 mM Tris; pH 7.5; binding assay buffer), homogenized by polytron for ca. 20 sec on ice and centrifuged for 60 min at 4° C. (50000 g; Sorvall, rotor: SM24=20000 rpm). The cell pellets were resuspended in Krebs-tris buffer and homogenized by polytron for ca. 15 sec on ice. Protein was measured (Bradford method, Bio-Rad) and aliquots of 1 mL were prepared and stored at −80° C.
Assays were incubated to equilibrium for 1 hour at 4° C. and harvested onto GF/C uni-filters (Packard) by filtration using a Packard harvester and washing with ice-cold wash buffer (50 mM Tris; pH 7.5). After drying, filter-retained radioactivity was detected by liquid scintillation counting. Ki values were calculated using Excel-Fit (Microsoft) and are the means of two determinations.

human GABA A receptor α5β3γ2 (α5 subunit), sequence (P31644 32-462): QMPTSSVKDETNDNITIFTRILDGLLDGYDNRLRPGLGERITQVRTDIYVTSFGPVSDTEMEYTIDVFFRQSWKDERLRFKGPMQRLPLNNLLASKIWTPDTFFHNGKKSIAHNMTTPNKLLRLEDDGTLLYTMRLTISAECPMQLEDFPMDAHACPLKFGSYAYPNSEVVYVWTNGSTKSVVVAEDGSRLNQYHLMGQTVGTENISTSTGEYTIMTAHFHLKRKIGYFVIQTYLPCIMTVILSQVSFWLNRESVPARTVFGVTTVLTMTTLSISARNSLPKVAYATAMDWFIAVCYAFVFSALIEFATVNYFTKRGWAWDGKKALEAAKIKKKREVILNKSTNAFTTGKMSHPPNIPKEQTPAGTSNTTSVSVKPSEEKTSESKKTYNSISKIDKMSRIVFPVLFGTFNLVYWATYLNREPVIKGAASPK
human GABA A receptor α5β3γ2 (α5 subunit), sequence (P28472 26-473 partner): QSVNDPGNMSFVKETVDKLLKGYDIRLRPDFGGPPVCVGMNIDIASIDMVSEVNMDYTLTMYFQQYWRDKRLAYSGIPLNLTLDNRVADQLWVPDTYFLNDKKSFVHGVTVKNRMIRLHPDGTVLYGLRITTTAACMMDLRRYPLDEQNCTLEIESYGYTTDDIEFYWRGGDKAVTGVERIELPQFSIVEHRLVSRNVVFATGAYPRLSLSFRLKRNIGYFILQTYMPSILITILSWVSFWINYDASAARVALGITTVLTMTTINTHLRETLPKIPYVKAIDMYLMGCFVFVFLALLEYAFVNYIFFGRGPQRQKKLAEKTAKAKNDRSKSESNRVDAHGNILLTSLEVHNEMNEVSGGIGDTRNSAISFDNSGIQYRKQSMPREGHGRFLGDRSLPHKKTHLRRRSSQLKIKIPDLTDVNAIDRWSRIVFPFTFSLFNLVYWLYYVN
human GABA A receptor α5β3γ2 (α5 subunit), sequence (P18507 40-475): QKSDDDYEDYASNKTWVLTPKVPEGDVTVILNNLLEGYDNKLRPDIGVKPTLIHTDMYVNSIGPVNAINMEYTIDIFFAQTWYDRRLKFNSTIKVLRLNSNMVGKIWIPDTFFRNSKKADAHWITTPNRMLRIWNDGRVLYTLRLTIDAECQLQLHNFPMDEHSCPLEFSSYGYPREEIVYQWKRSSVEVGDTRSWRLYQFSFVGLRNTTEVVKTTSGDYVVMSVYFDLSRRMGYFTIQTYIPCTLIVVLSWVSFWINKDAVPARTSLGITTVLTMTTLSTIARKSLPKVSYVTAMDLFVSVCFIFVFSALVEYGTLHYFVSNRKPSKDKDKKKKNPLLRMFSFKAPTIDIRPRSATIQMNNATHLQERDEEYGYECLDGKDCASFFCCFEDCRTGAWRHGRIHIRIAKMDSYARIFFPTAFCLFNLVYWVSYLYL

Ki [nM]	Compound
25.9	Cc1onc(-c2ccccn2)c1COc1ccc(C(=O)N2CCOCC2)nn1 [Example 96, [6-(5-Methyl-3-pyridin-2-yl-isoxazol-4-ylmethoxy)-pyridazin-3-yl]-morpholin-4-yl-methanone]

Same assay, conditions: competition for [3H]flumazenil binding, HEK293 cells transiently expressing human receptors; means of two determinations; read-out: hKi

Compound	Ki [nM]
Cc1ccc(OCc2c(-c3ccccc3)noc2C)nn1 [Example 4, 3-Methyl-6-(5-methyl-3-phenyl-isoxazol-4-ylmethoxy)-pyridazine]	6.2
Cc1cc(C)n(-c2ccc(OCc3c(-c4ccccc4)noc3C)nn2)n1 [Example 39, 3-(3,5-Dimethyl-pyrazol-1-yl)-6-(5-methyl-3-phenyl-isoxazol-4-ylmethoxy)-pyridazine]	5.1
Cc1onc(-c2ccccc2)c1COc1ccc(NC(=O)C2CCOCC2)nn1 [Example 25, Tetrahydro-pyran-4-carboxylic acid [6-(5-methyl-3-phenyl-isoxazol-4-ylmethoxy)-pyridazin-3-yl]-amide]	8.7
Cc1onc(-c2ccccc2)c1COc1ccc(C(=O)NC(C)C)nn1 [Example 7, 6-(5-Methyl-3-phenyl-isoxazol-4-ylmethoxy)-pyridazine-3-carboxylic acid isopropylamide]	5.9
CCNC(=O)c1ccc(OCc2c(-c3cccc(F)c3)noc2C)nn1 [Example 51, 6-[3-(3-Fluoro-phenyl)-5-methyl-isoxazol-4-ylmethoxy]-pyridazine-3-carboxylic acid ethylamide]	6.1
Cc1onc(-c2ccccn2)c1COc1ccc(C(=O)NC(C)(C)CO)nn1 [Example 105, 6-(5-Methyl-3-pyridin-2-yl-isoxazol-4-ylmethoxy)-pyridazine-3-carboxylic acid (2-hydroxy-1,1-dimethyl-ethyl)-amide]	4
Cc1onc(-c2ccncn2)c1COc1ccc(C(=O)NCCO)nn1 [Example 114, 6-(5-Methyl-3-pyrimidin-4-yl-isoxazol-4-ylmethoxy)-pyridazine-3-carboxylic acid (2-hydroxy-ethyl)-amide]	4.7
COc1ccc(OCc2c(-c3ccccc3)noc2C)nn1 [Example 14, 3-Methoxy-6-(5-methyl-3-phenyl-isoxazol-4-ylmethoxy)-pyridazine]	12.3
Cc1onc(-c2ccccc2)c1COc1ccc(N)nn1 [Example 15, 6-(5-Methyl-3-phenyl-isoxazol-4-ylmethoxy)-pyridazin-3-ylamine]	4.1
Cc1onc(-c2ccccc2)c1COc1ccc(NC(=O)c2ccccc2)nn1 [Example 30, N-[6-(5-Methyl-3-phenyl-isoxazol-4-ylmethoxy)-pyridazin-3-yl]-benzamide]	13.7
Cc1onc(-c2cccc(F)c2)c1CNc1ccc(C(=O)NCC(F)(F)F)nn1 [Example 118, 6-{[3-(3-Fluoro-phenyl)-5-methyl-isoxazol-4-ylmethyl]-amino}-pyridazine-3-carboxylic acid (2,2,2-trifluoro-ethyl)-amide]	28.9
Cc1onc(-c2ccccc2)c1COc1ccc(NC(=O)C2CCC2)nn1 [Example 22, Cyclobutanecarboxylic acid [6-(5-methyl-3-phenyl-isoxazol-4-ylmethoxy)-pyridazin-3-yl]-amide]	10.1
COCCNC(=O)c1ccc(OCc2c(-c3ccccc3)noc2C)nn1 [Example 6, 6-(5-Methyl-3-phenyl-isoxazol-4-ylmethoxy)-pyridazine-3-carboxylic acid (2-methoxy-ethyl)-amide]	5.4
Cc1onc(-c2ccccc2)c1COc1ccc(N(C)C)nn1 [Example 38, Dimethyl-[6-(5-methyl-3-phenyl-isoxazol-4-ylmethoxy)-pyridazin-3-yl]-amine]	8.4
Cc1onc(-c2ccc(F)cc2)c1COc1ccc(C(=O)NCC2CC2)nn1 [Example 59, 6-[3-(4-Fluoro-phenyl)-5-methyl-isoxazol-4-ylmethoxy]-pyridazine-3-carboxylic acid cyclopropylmethyl-amide]	4.6
Cc1onc(-c2ccccc2)c1COc1ccc(N2CCOCC2)nn1 [Example 36, 4-[6-(5-Methyl-3-phenyl-isoxazol-4-ylmethoxy)-pyridazin-3-yl]-morpholine]	9.4
Cc1onc(-c2ccc(Cl)cn2)c1CNc1ccc(C(=O)NC(C)(C)CO)nn1 [Example 119, 6-{[3-(5-Chloro-pyridin-2-yl)-5-methyl-isoxazol-4-ylmethyl]-amino}-pyridazine-3-carboxylic acid (2-hydroxy-1,1-dimethyl-ethyl)-amide]	7.3
COC(=O)C(=O)Nc1ccc(OCc2c(-c3ccccc3)noc2C)nn1 [Example 28, N-[6-(5-Methyl-3-phenyl-isoxazol-4-ylmethoxy)-pyridazin-3-yl]-oxalamic acid methyl ester]	5.1
CCOC(=O)c1ccc(OCc2c(-c3ccccc3)noc2C)nn1 [Example 5, 6-(5-Methyl-3-phenyl-isoxazol-4-ylmethoxy)-pyridazine-3-carboxylic acid ethyl ester]	5.5
O=C(NC1CC1)c1ccc(OCc2conc2-c2ccccn2)nn1 [Example 124, 6-(3-Pyridin-2-yl-isoxazol-4-ylmethoxy)-pyridazine-3-carboxylic acid cyclopropylamide]	31.5
Cc1onc(-c2ccccc2)c1COc1ccc(NC(=O)C(C)C)nn1 [Example 20, N-[6-(5-Methyl-3-phenyl-isoxazol-4-ylmethoxy)-pyridazin-3-yl]-isobutyramide]	7.9
Cc1onc(-c2ccccc2)c1COc1ccc(NC(=O)C2CC2)nn1 [Example 21, Cyclopropanecarboxylic acid [6-(5-methyl-3-phenyl-isoxazol-4-ylmethoxy)-pyridazin-3-yl]-amide]	5.3
Cc1onc(-c2ccncc2)c1COc1ccc(C(=O)NCCO)nn1 [Example 107, 6-(5-Methyl-3-pyridin-4-yl-isoxazol-4-ylmethoxy)-pyridazine-3-carboxylic acid (2-hydroxy-ethyl)-amide]	23.3

The remaining lines, values ahead:

Ki [nM]	Compound
1.6	COCCNC(=O)c1ccc(OCc2c(-c3ccccn3)noc2C)nn1 [Example 106, 6-(5-Methyl-3-pyridin-2-yl-isoxazol-4-ylmethoxy)-pyridazine-3-carboxylic acid (2-methoxy-ethyl)-amide]
1.7	Cc1onc(-c2ccc(F)cc2)c1COc1ccc(C(=O)NC2CC2)nn1 [Example 62, 6-[3-(4-Fluoro-phenyl)-5-methyl-isoxazol-4-ylmethoxy]-pyridazine-3-carboxylic acid cyclopropylamide]
2.7	Cc1onc(-c2ccccn2)c1COc1ccc(C(=O)NC(C)C)nn1 [Example 95, 6-(5-Methyl-3-pyridin-2-yl-isoxazol-4-ylmethoxy)-pyridazine-3-carboxylic acid isopropylamide]
3.8	Cc1onc(-c2ccccn2)c1COc1ccc(Cl)nn1 [Example 92, 3-Chloro-6-(5-methyl-3-pyridin-2-yl-isoxazol-4-ylmethoxy)-pyridazine]
2.1	Cc1onc(-c2ccc(Cl)cn2)c1COc1ccc(C(=O)O)nn1 [Example 113, 6-[3-(5-Chloro-pyridin-2-yl)-5-methyl-isoxazol-4-ylmethoxy]-pyridazine-3-carboxylic acid]
1.5	Cc1onc(-c2ccc(F)cn2)c1COc1ccc(C(=O)NC(C)(C)CO)nn1 [Example 112, 6-[3-(5-Fluoro-pyridin-2-yl)-5-methyl-isoxazol-4-ylmethoxy]-pyridazine-3-carboxylic acid (2-hydroxy-1,1-dimethyl-ethyl)-amide]
1.5	CCNC(=O)c1ccc(OCc2c(-c3ccccn3)noc2C)nn1 [Example 103, 6-(5-Methyl-3-pyridin-2-yl-isoxazol-4-ylmethoxy)-pyridazine-3-carboxylic acid ethylamide]
3.4	Cc1cc(OCc2c(-c3ccccc3)noc2C)nnc1C(=O)NC1CCOCC1 [Example 44, 4-Methyl-6-(5-methyl-3-phenyl-isoxazol-4-ylmethoxy)-pyridazine-3-carboxylic acid (tetrahydro-pyran-4-yl)-amide]
1.6	Cc1onc(-c2ccc(F)cn2)c1COc1ccc(Cl)nn1 [Example 110, 3-Chloro-6-[3-(5-fluoro-pyridin-2-yl)-5-methyl-isoxazol-4-ylmethoxy]-pyridazine]
3.3	CCOC(=O)c1ccc(OCc2c(-c3ccc(F)cc3)noc2C)nn1 [Example 58, 6-[3-(4-Fluoro-phenyl)-5-methyl-isoxazol-4-ylmethoxy]-pyridazine-3-carboxylic acid ethyl ester]
1.2	CCOC(=O)c1ccc(OCc2c(-c3ccc(F)cn3)noc2C)nn1 [Example 111, 6-[3-(5-Fluoro-pyridin-2-yl)-5-methyl-isoxazol-4-ylmethoxy]-pyridazine-3-carboxylic acid ethyl ester]
3.4	Cc1onc(-c2ccccc2)c1COc1ccc(C(=O)NCCO)nn1 [Example 12, 6-(5-Methyl-3-phenyl-isoxazol-4-ylmethoxy)-pyridazine-3-carboxylic acid (2-hydroxy-ethyl)-amide]
3.6	Cc1cc(OCc2c(-c3ccccc3)noc2C)nnc1C(=O)NC(C)C [Example 46, 4-Methyl-6-(5-methyl-3-phenyl-isoxazol-4-ylmethoxy)-pyridazine-3-carboxylic acid isopropylamide]
2.9	Cc1onc(-c2ccccn2)c1COc1ccc(C(=O)NC2CCOCC2)nn1 [Example 94, 6-(5-Methyl-3-pyridin-2-yl-isoxazol-4-ylmethoxy)-pyridazine-3-carboxylic acid (tetrahydro-pyran-4-yl)-amide]
